Drawing on US20140005163A1 (NOVARTIS AG, priority 2010, published 2014), this text covers IC50 for 19 compounds.

Experiment [1] deals with T1, PI3K beta (Homo sapiens, UniProt P42338).
T1 construct: for the full-length p110-b subunit are generated and fused by overlapping PCR; p85(iSH2) fusion partner (see partner chain) (N); His tag (C); made in house; host or cells: baculovirus; Tn5 (Trichoplusia ni) or TiniPro insect cells
In words: PI3K beta kinase assay (Kinase-Glo luminescence). The experiment is classed as biochemical. An outline of the steps:
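Full-length p110β with a Gly-linked p85 iSH2 and a C-terminal His tag (BV949, 25 nM) was incubated with 10 μg/mL phosphatidylinositol and 1 μM ATP in 10 mM Tris pH 7.5, 3 mM MgCl2, 50 mM NaCl, 0.05% CHAPS, 1 mM DTT for 60 min at room temperature. Residual ATP was read by Kinase-Glo luminescence.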
Background: In Kinase-Glo more light means more ATP remaining.

Experiment [2] has as its system PKB Ser473 phosphorylation in Rat1-myr-HA-p110 alpha cells. In words: Reverse protein array assay, PKB Ser473 phosphorylation in Rat1-myr-p110 alpha cells. The class given is cell-based. To be noted: 0.5 h, pAkt Ser473, 30 minutes compound incubation, read-out: p-PKB IC50. An outline of the steps: (§1)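 Cells: Rat1-myr-HA-p110 alpha/beta/delta, seeded ≥20 h. Lysis on ice 10 min; reverse-phase protein array, 4 lysate dilutions; fluorescence read, relative intensity.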

Experiment [3] relates to PKB Ser473 phosphorylation in Rat1-myr-HA-p110 delta cells. In words: Reverse protein array assay, PKB Ser473 phosphorylation in Rat1-myr-p110 delta cells. The experiment is classed as cell-based. To be noted: read-out: p-PKB IC50. An outline of the steps:
as §1

Experiment [4] relates to S6 Ribosomal Protein phosphorylation Ser235/236 in TSC1 null mouse embryo fibroblast (MEF) cells. In words: Reverse protein array assay, S6 Ribosomal Protein phosphorylation Ser235/236 in TSC1 null MEF cells. The experiment is classed as cell-based. To be noted: 1 h, pS6 ribosomal protein Ser235/236, 60 minutes incubation, read-out: p-S6 IC50. An outline of the steps: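 TSC1−/− MEFs, seeded and held ≥20 h at 37 °C/5% CO2, were exposed to 8-step serial compound dilutions (0.02% DMSO final; DMSO vehicle control) for 60 min at 37 °C. Cells were then lysed on ice for 10 min and lysates spotted onto reverse protein array chips.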

Where only a bound is given, the exact number is not on record here.

T1 sequence (P42338 with tags, fused parts or gaps limits assumed): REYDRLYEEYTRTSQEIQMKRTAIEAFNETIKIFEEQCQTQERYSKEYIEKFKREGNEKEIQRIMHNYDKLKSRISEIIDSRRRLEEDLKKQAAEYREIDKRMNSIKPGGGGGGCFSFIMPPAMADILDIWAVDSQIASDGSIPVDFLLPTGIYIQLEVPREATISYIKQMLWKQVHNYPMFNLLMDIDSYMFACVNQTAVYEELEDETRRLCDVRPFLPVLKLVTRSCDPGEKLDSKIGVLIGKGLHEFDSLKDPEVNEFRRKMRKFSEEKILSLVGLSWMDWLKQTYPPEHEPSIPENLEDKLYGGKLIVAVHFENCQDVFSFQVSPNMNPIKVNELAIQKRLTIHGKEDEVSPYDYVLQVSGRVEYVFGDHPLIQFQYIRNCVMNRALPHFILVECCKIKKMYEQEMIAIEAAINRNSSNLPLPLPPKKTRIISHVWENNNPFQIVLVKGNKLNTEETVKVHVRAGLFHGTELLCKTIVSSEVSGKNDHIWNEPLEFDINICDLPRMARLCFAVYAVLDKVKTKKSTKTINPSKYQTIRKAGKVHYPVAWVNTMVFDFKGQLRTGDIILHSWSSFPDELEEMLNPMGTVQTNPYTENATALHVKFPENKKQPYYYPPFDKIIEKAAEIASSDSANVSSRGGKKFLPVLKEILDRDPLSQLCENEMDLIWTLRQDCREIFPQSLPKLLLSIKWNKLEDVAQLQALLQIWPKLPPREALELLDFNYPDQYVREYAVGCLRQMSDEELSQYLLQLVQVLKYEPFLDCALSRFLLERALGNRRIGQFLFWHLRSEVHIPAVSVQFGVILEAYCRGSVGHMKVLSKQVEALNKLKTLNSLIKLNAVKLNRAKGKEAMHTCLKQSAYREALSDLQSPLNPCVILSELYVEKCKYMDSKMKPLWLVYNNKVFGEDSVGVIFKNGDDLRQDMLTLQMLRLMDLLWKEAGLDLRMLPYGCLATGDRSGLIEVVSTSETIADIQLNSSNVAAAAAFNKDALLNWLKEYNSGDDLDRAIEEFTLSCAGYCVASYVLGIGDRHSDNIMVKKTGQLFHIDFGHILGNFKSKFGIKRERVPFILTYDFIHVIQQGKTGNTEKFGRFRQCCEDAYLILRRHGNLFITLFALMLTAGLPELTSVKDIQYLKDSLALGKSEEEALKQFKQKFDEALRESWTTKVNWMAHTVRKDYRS

In general, IC50 refers to the midpoint of a concentration-inhibition curve. For `CNc1cc(-c2ccc3ncc4c(c3c2)n(-c2cn(C(C)C)nc2C)c(=O)n4C)cnc1CO` [Example 158.2, 8-(6-Hydroxymethyl-5-methylamino-pyridin-3-yl)-1-(1-isopropyl-3-methyl-1H-pyrazol-4-yl)-3-methyl-1,3-dihydro-imidazo[4,5-c]quinolin-2-one], the 50% inhibitory concentration (IC50) in experiment [1] came out at 184 nM; in experiment [2] it was 7 nM; in experiment [3], 15 nM; in experiment [4] it was 1 nM.
For `CNc1cc(-c2ccc3ncc4c(c3c2)n(-c2cn(C)nc2Cl)c(=O)n4C)cnc1CO` [Example 158.3, 1-(3-Chloro-1-methyl-1H-pyrazol-4-yl)-8-(6-hydroxymethyl-5-methylamino-pyridin-3-yl)-3-methyl-1,3-dihydro-imidazo[4,5-c]quinolin-2-one] the same measures were 8 nM, less than 5 nM, less than 5 nM and less than 0.5 nM.
For `CNc1cc(-c2ccc3ncc4c(c3c2)n(-c2cn(C)nc2C)c(=O)n4C)cnc1C` [Example 163, 1-(1,3-Dimethyl-1H-pyrazol-4-yl)-3-methyl-8-(6-methyl-5-methylamino-pyridin-3-yl)-1,3-dihydro-imidazo[4,5-c]quinolin-2-one] the same measures were 10 nM, less than 5 nM, 12 nM and 2 nM.
On to `CCN(C)c1cc(-c2ccc3ncc4c(c3c2)n(-c2cn(C)nc2C)c(=O)n4C)cnc1C` [Example 165, 1-(1,3-Dimethyl-1H-pyrazol-4-yl)-8-[5-(ethyl-methyl-amino)-6-methyl-pyridin-3-yl]-3-methyl-1,3-dihydro-imidazo[4,5-c]quinolin-2-one], for which the IC50 is 25 nM in experiment [1], 6 nM in experiment [2], 8 nM in experiment [3] and 1 nM in experiment [4].
For `Cc1nn(C(C)C)cc1-n1c(=O)n(C)c2cnc3ccc(-c4cnc(N)c(CO)c4)cc3c21` [Example 169.1, 8-(6-Amino-5-hydroxymethyl-pyridin-3-yl)-1-(1-isopropyl-3-methyl-1H-pyrazol-4-yl)-3-methyl-1,3-dihydro-imidazo[4,5-c]quinolin-2-one], the concentration for half-maximal inhibition (IC50) amounted to 87 nM in experiment [1], 27 nM in experiment [2], 70 nM in experiment [3] and 5.63 nM in experiment [4].
For `Cc1nn(C)cc1-n1c(=O)n(C)c2cnc3ccc(-c4cncc(NC5CCC5)c4)cc3c21` [Example 172, 8-(5-Cyclobutylamino-pyridin-3-yl)-1-(1,3-dimethyl-1H-pyrazol-4-yl)-3-methyl-1,3-dihydro-imidazo[4,5-c]quinolin-2-one], in that order: 146 nM, 9 nM, 15 nM and 1 nM.
With `Cc1nn(C)cc1-n1c(=O)n(C)c2cnc3ccc(-c4cncc(N(C)C(C)C)c4)cc3c21` [Example 173, 1-(1,3-Dimethyl-1H-pyrazol-4-yl)-8-[5-(isopropyl-methyl-amino)-pyridin-3-yl]-3-methyl-1,3-dihydro-imidazo[4,5-c]quinolin-2-one], the IC50 in experiment [1] came out at 148 nM; in experiment [2], 16 nM; in experiment [3] it was 50 nM; in experiment [4], 2 nM.
For `Cc1nn(C)cc1-n1c(=O)n(C)c2cnc3ccc(-c4cncc(N5CCOCC5)c4)cc3c21` [Example 175.1, 1-(1,3-Dimethyl-1H-pyrazol-4-yl)-3-methyl-8-(5-morpholin-4-yl-pyridin-3-yl)-1,3-dihydro-imidazo[4,5-c]quinolin-2-one], the 50% inhibitory concentration (IC50) in experiment [1] came out at 180 nM; in experiment [2], 17 nM; in experiment [3], 90 nM; in experiment [4], 1 nM.
With `Cc1nn(C)cc1-n1c(=O)n(C)c2cnc3ccc(-c4cncc(N(C)C)c4)cc3c21` [Example 178, 8-(5-Dimethylamino-pyridin-3-yl)-1-(1,3-dimethyl-1H-pyrazol-4-yl)-3-methyl-1,3-dihydro-imidazo[4,5-c]quinolin-2-one], the IC50 came out at 274 nM in experiment [1], 20 nM in experiment [2], 85 nM in experiment [3] and 2 nM in experiment [4].
Take `Cc1nn(C)cc1-n1c(=O)n(C)c2cnc3ccc(-c4cncc(N5CCC5)c4)cc3c21` [Example 179, 8-(5-Azetidin-1-yl-pyridin-3-yl)-1-(1,3-dimethyl-1H-pyrazol-4-yl)-3-methyl-1,3-dihydro-imidazo[4,5-c]quinolin-2-one]: the half-inhibitory concentration (IC50) in experiment [1] came out at 130 nM; in experiment [2], 18 nM; in experiment [3], 25 nM; in experiment [4], 10 nM.
Regarding `CNc1cncc(-c2ccc3ncc4c(c3c2)n(-c2cn(C(C)C)nc2C)c(=O)n4C)c1` [Example 180.2, 1-(1-Isopropyl-3-methyl-1H-pyrazol-4-yl)-3-methyl-8-(5-methylamino-pyridin-3-yl)-1,3-dihydro-imidazo[4,5-c]quinolin-2-one], the concentration for half-maximal inhibition (IC50) in experiment [1] was 42 nM; in experiment [2], less than 5 nM; in experiment [3] it was 24 nM; in experiment [4] it was 17 nM.
On to `CCOc1cc(-c2ccc3ncc4c(c3c2)n(-c2cn(C)nc2C)c(=O)n4C)cnc1CC` [Example 187, 1-(1,3-Dimethyl-1H-pyrazol-4-yl)-8-(5-ethoxy-6-ethyl-pyridin-3-yl)-3-methyl-1,3-dihydro-imidazo[4,5-c]quinolin-2-one], for which the 50% inhibitory concentration (IC50) was determined as 28 nM in experiment [1], 6 nM in experiment [2], 24 nM in experiment [3] and 1.89 nM in experiment [4].
For `CCc1ncc(-c2ccc3ncc4c(c3c2)n(-c2cn(C)nc2C)c(=O)n4C)cc1O` [Example 188, 1-(1,3-Dimethyl-1H-pyrazol-4-yl)-8-(6-ethyl-5-hydroxy-pyridin-3-yl)-3-methyl-1,3-dihydro-imidazo[4,5-c]quinolin-2-one], in that order: 30 nM, 8 nM, 41 nM and 8.15 nM.
For `CCn1cc(-n2c(=O)n(C)c3cnc4ccc(-c5cnc(COC)c(OC(C)C)c5)cc4c32)c(C)n1` [Example 191.2, 1-(1-Ethyl-3-methyl-1H-pyrazol-4-yl)-8-(5-isopropoxy-6-methoxymethyl-pyridin-3-yl)-3-methyl-1,3-dihydro-imidazo[4,5-c]quinolin-2-one], the IC50 in experiment [1] was determined as 178 nM; in experiment [2], 27 nM; in experiment [3], 88 nM; in experiment [4], 5 nM.
For `Cc1nn(C)cc1-n1c(=O)n(C)c2cnc3ccc(-c4cnc(CO)c(OC(CF)CF)c4)cc3c21` [Example 192, 1-(1,3-Dimethyl-1H-pyrazol-4-yl)-8-[5-(2-fluoro-1-fluoromethyl-ethoxy)-6-hydroxymethyl-pyridin-3-yl]-3-methyl-1,3-dihydro-imidazo[4,5-c]quinolin-2-one], in that order: 6 nM, 12 nM, 72 nM and 5 nM.
For `CCOc1cc(-c2ccc3ncc4c(c3c2)n(-c2cn(C(C)C)nc2C)c(=O)n4C)cnc1COC` [Example 197.2, 8-(5-Ethoxy-6-methoxymethyl-pyridin-3-yl)-1-(1-isopropyl-3-methyl-1H-pyrazol-4-yl)-3-methyl-1,3-dihydro-imidazo[4,5-c]quinolin-2-one] the same measures were 103 nM, 77 nM, 336 nM and 7 nM.
For `COCc1ccc(-c2ccc3ncc4c(c3c2)n(-c2cn(C)nc2Cl)c(=O)n4C)cn1` [Example 203, 1-(3-Chloro-1-methyl-1H-pyrazol-4-yl)-8-(6-methoxymethyl-pyridin-3-yl)-3-methyl-1,3-dihydro-imidazo[4,5-c]quinolin-2-one], in that order: 104 nM, 10 nM, 26 nM and 22 nM.
Regarding `CCNc1ncc(-c2ccc3ncc4c(c3c2)n(-c2cn(C)nc2C)c(=O)n4C)cc1COC` [Example 206.1, 1-(1,3-Dimethyl-1H-pyrazol-4-yl)-8-(6-ethylamino-5-methoxymethyl-pyridin-3-yl)-3-methyl-1,3-dihydro-imidazo[4,5-c]quinolin-2-one], the IC50 in experiment [1] amounted to 38 nM; in experiment [2], 11 nM; in experiment [3] it was 45 nM; in experiment [4], 3 nM.
Regarding `CCNc1ncc(-c2ccc3ncc4c(c3c2)n(-c2c(C)nn(C)c2C)c(=O)n4C)cc1COC` [Example 206.2, 8-(6-Ethylamino-5-methoxymethyl-pyridin-3-yl)-3-methyl-1-(1,3,5-trimethyl-1H-pyrazol-4-yl)-1,3-dihydro-imidazo[4,5-c]quinolin-2-one], the IC50 is 432 nM in experiment [1], 126 nM in experiment [2], 479 nM in experiment [3] and 77 nM in experiment [4].
